This passage reports EC50, IC50 and outcome results from PubChem BioAssay AID179 (DTP/NCI, 2004).

Active and inactive are the calls of the source.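 How the source made its calls: active means compounds giving half or more protection of infected cells from virus-caused growth loss, again on retest; inactive means the rest.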 A value given as a limit tells only on which side of the number the result lay.

The assay deals with CEM cells HIV-1 protection, formazan growth assay. As to the kind of experiment: NCI AIDS Antiviral Assay. The note with it: for IC50: measured here: growth of uninfected CEM cells. A digest of the protocol:
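Steps: treat uninfected and HIV-1-infected human CEM cells at five drug levels; quantify growth by soluble formazan; retest any compound reaching 50% protection; classify actives from the retest.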

What is called EC50 is the concentration that produces a half-maximal response. For orientation: IC50 means the point on the concentration scale where inhibition reaches its midpoint. A lower IC50 goes with inhibition by little substance. For `CC(C#N)(CCC(=O)O)N=NC(C)(C#N)CCC(=O)O` (stereo not given), the EC50 is greater than 891 µM and the IC50 is greater than 891 µM.

As to `Nc1nc(N)c(CCCCc2ccccc2)c(N)n1`, the outcome was inactive.

With `CN(C)CCN1C(=O)c2ccccc2N(C)c2ccccc21`, the EC50 is greater than 200 µM and the IC50 is greater than 200 µM.

On to `Cc1cc2c(C(C)C)c(O)c(O)c(C=Nc3ccc(C(=O)NCC(=O)O)cc3)c2c(O)c1-c1c(C)cc2c(C(C)C)c(O)c(O)c(C=Nc3ccc(C(=O)NCC(=O)O)cc3)c2c1O`, for which the EC50 was greater than 200 µM and the IC50 turned out to be 25.7 µM.

For the molecule `Cc1cc(C(=O)Nc2ccc(NC3=NCCN3)cc2)c(C)cc1C(=O)Nc1ccc(NC2=NCCN2)cc1`, the EC50 was greater than 200 µM and the 50% inhibitory concentration (IC50) amounted to 20.4 µM.

`Cn1c(=O)[nH]c(N2CCCC2)c(C#N)c1=S`: the EC50 is greater than 200 µM and the IC50 was greater than 200 µM.

Consider `COc1cc2c(c(OC)c1OC)C(=O)[C@@H](OC(=O)CCCCl)[C@H]2N`, for which the EC50 is greater than 200 µM and the IC50 was greater than 200 µM.

For the molecule `O=C1NC2c3c(I)sc(I)c3/C(=N\O)C2O1` (stereo not given), the EC50 is greater than 200 µM and the IC50 amounted to 16.2 µM.

For `CCOC(=O)C1Cc2ccc(C)cc2C1=O` (stereo not given), the EC50 is greater than 200 µM and the IC50 is 110 µM.

Consider `O=C1C=C(N2CC2)C(=O)C=C1N1CC1`, for which the EC50 is greater than 0.2 µM and the half-maximal inhibitory concentration (IC50) stood at 0.0141 µM.

As to `CCN(CC)C(=O)c1c2nc3c(C(=O)N(CC)CC)ccc(C)c3oc-2c(C)c(=O)c1N`, the EC50 is greater than 200 µM and the IC50 was determined as 83.2 µM.

As for `CCCCCCCCCCOCC(COCCOCC(COCCCCCCCCCC)OS(=O)(=O)O)OS(=O)(=O)O` (stereo not given), the EC50 is greater than 186 µM and the IC50 was found to be 42.7 µM.

On to `CCN(CC)CCC(=O)c1ccc(Oc2ccc(C)cc2)cc1`, for which the EC50 was greater than 200 µM and the half-inhibitory concentration (IC50) is 28.8 µM.

For `N#Cc1cccc(/C=C(/C(=O)c2ccccc2)c2ccccc2)c1`, the EC50 was greater than 17 µM and the IC50 was 9.55 µM.

For the molecule `Cc1c(C)c(CC(=O)N2CC2)c(C)c(C)c1CC(=O)N1CC1`, the EC50 is greater than 200 µM and the IC50 was 0.794 µM.

With `N.N.N.N.N.O=C([O-])C(=O)[O-].[Co+3].[O-][Cl+3]([O-])([O-])O.[O-][Cl+3]([O-])([O-])[O-]`, the result was inactive.

With `NC1=NCCC1(c1ccccc1)c1ccccn1` (stereo not given), the EC50 is greater than 550 µM and the IC50 was determined as 490 µM.

`CCc1n[nH]c(=O)n1NC(=O)c1ccccc1C(=O)O`: the EC50 is greater than 200 µM and the IC50 is greater than 200 µM.

On to `Cc1ccc2nc(NC(=O)C(=O)C(C#N)c3nc4ccccc4s3)sc2c1` (stereo not given), for which the EC50 is greater than 66.1 µM and the IC50 was greater than 66.1 µM.

Consider `CCOc1ccc2nc(NC(=O)/C(CC(=O)CC(C3=C(O)c4ccccc4CC3=O)c3ccccc3)=N\O)sc2c1` (stereo not given), for which the EC50 is greater than 4.79 µM and the IC50 is greater than 4.79 µM.

In the case of `COc1ccc(/C(CC2OC(=O)c3ccccc32)=N\NC(N)=O)cc1` (stereo not given), the EC50 is greater than 339 µM and the IC50 is greater than 339 µM.

For `COC(=O)C1CC(C(=O)OC)c2nc3cc(C)c(C)cc3nc21` (stereo not given), the EC50 is greater than 83.2 µM and the IC50 was greater than 83.2 µM.

In the case of `Cc1ccc(NC(=O)c2cc(S(=O)(=O)n3cc[nH]c3=O)c(S)cc2Cl)cc1`, the EC50 is greater than 200 µM and the IC50 is greater than 200 µM.

As for `OCCN1CCN(CCO)Cc2ccccc2OCCOc2ccccc2C1`, the EC50 is greater than 245 µM and the IC50 came out at 97.7 µM.

In the case of `c1cc[c]([Sn]([S]c2ccccn2)([c]2ccccc2)[c]2ccccc2)cc1`, the EC50 is greater than 2 µM and the IC50 is 0.339 µM.

Regarding `COC(=O)C(=O)C(C(C)=O)C(=O)NCc1ccc(OC)c(OC)c1` (stereo not given), the EC50 is 61.7 µM and the IC50 came to 741 µM.

For the molecule `CN1CCN(/C(N)=C(\C#N)C(=O)Nc2ccc(Cl)cc2)CC1`, the EC50 is greater than 200 µM and the IC50 was greater than 100 µM.

Regarding `Cc1ccc(C2=Nc3cc(C)c(Cl)cc3S(=O)(=O)NN2)cc1`, the EC50 was 34.7 µM and the IC50 stood at 87.1 µM.

Regarding `O=C1OCc2c1cc1ccc(O)c(OC3OC(CO)C(O)C(O)C3O)c1c2-c1ccc2c(c1)OCO2` (stereo not given), the EC50 is greater than 501 µM and the IC50 was greater than 501 µM.

Turning to `NC(N)=NS(N)(=O)=O`, the EC50 was greater than 200 µM and the IC50 is greater than 200 µM.

For the molecule `CN(C)c1ccc(C(=CC=C2C(=O)NC(=O)NC2=O)c2ccc(N(C)C)cc2)cc1`, the EC50 was greater than 4.9 µM and the IC50 is greater than 4.9 µM.

Take `Cc1ccc(/C=C2/N=C(N/N=C\c3ccccc3)NC2=O)cc1`: the EC50 was greater than 200 µM and the IC50 turned out to be 129 µM.

Turning to `CC(C)=CCCC(C)CCN(O)CC(CO)OC(CO)n1cc(C)c(=O)[nH]c1=O` (stereo not given), the EC50 was greater than 200 µM and the IC50 is 135 µM.

As for `COCCOCOC(CCCCO)c1cc(C)c(O[Si](C)(C)C(C)(C)C)c(C)c1` (stereo not given), the EC50 is greater than 50.1 µM and the IC50 is 4.9 µM.

Turning to `COC(=O)C1=C(C)C=C(N2CCOCC2)C(C(=O)OC)C1c1ccccc1` (stereo not given), the EC50 was greater than 200 µM and the IC50 was greater than 200 µM.

For the molecule `CC1=CN2C(c3ccccc3)=NON(c3ccc(C)cn3)C2C=C1` (stereo not given), the EC50 was greater than 21.4 µM and the IC50 was greater than 21.4 µM.

Turning to `Oc1cccc2ccc(SSc3ccc4cccc(O)c4n3)nc12`, the EC50 was greater than 200 µM and the IC50 worked out at 20.4 µM.

For the molecule `O=c1c2ccccc2[se]n1-c1ccc(I)cc1`, the EC50 is greater than 11 µM and the IC50 is 10.7 µM.

For the molecule `Nc1nc(=S)[nH]c2n[nH]nc12`, the EC50 was greater than 200 µM and the IC50 was greater than 200 µM.

In the case of `O=[N+]([O-])c1ccc(CN=C2NNS(=O)(=O)c3ccccc32)cc1`, the EC50 is greater than 15.8 µM and the IC50 was greater than 15.8 µM.

As for `CC(=O)[O-].O=[N+]([O-])c1ccc([O-])c(C=NCCN=Cc2cc([N+](=O)[O-])ccc2[O-])c1.[Mn+3]`, the EC50 was greater than 229 µM and the IC50 turned out to be 4.37 µM.

In the case of `Cc1nc2[nH]ncn2c(=O)c1CCO`, the EC50 was greater than 200 µM and the IC50 is greater than 200 µM.

Consider `NC(=O)N(O)c1cccc(Br)c1`, for which the EC50 is greater than 200 µM and the IC50 turned out to be 145 µM.

Turning to `CCOC(=O)COc1ccc(S(=O)(=O)c2ccc(OCC(=O)OCC)cc2)cc1`, the EC50 is greater than 200 µM and the IC50 was greater than 200 µM.

Regarding `CCCCOc1cccc(/C=N/N=C(/N)NO)c1`, the outcome was inactive.

For the molecule `CCN(CC)CCOC(=O)c1cc2ccccc2[nH]1`, the EC50 was greater than 200 µM and the IC50 is greater than 200 µM.

`CCCCOC(=O)c1ccc(NC(=O)C(C)N(CC)CC)cc1` (stereo not given): the EC50 is greater than 200 µM and the IC50 was found to be 36.3 µM.

For the molecule `O=C(O)c1ccccc1CC(Cc1ccc2c(c1)CCC2)C(=O)O` (stereo not given), the EC50 was greater than 200 µM and the IC50 is greater than 200 µM.

In the case of `C/C(CC(=O)Nc1ccc(C)c(C)c1)=N\NC(N)=S`, the EC50 is greater than 891 µM and the half-maximal inhibitory concentration (IC50) was 117 µM.

For the molecule `CCCCCCCCCCCCCCCCCCNC(=S)/N=C\C1=C(O)c2ccccc2C1=O`, the EC50 is greater than 200 µM and the IC50 is 36.3 µM.

As to `C=CCP(c1ccccc1)c1ccccc1`, the EC50 is 0.0631 µM and the IC50 is greater than 200 µM.

In the case of `CN1NC(c2ccccc2)=C(C#N)C(=O)CC1c1cccs1` (stereo not given), the EC50 was greater than 200 µM and the IC50 is greater than 200 µM.

Consider `CNCC(=O)NC(CO)C(=O)NC(CO)C(=O)NC1C(C(N)=O)OC(n2ccc(N)nc2=O)C(O)C1O` (stereo not given), for which the outcome was inactive.

As for `CC(C)(C)C1CCC2c3c([nH]c4ccccc34)C3C(=O)N(c4cccc([N+](=O)[O-])c4)C(=O)C3C2C1` (stereo not given), the EC50 is greater than 200 µM and the IC50 was 4.79 µM.

Consider `CC1=CC(=O)C(C)(C2=NC(C)(C)CO2)c2ccccc21` (stereo not given), for which the EC50 is 51.3 µM and the IC50 was determined as 575 µM.

For the molecule `CCOC(=O)/C(C#N)=C/c1ccc(CO)o1`, the EC50 was greater than 200 µM and the IC50 was greater than 200 µM.

As to `COC(=O)c1nc(N)[nH]c(=O)c1CCCCCc1c(C(=O)OC)nc(N)[nH]c1=O`, the EC50 was greater than 17.8 µM and the IC50 was greater than 17.8 µM.

`CCOC(=O)/C(=C/c1cn(C(C)=O)c2ccccc12)P(C)(=O)OCC` (stereo not given): the EC50 is greater than 200 µM and the IC50 was found to be 37.2 µM.

`COc1ccc(C(c2c(O)c3ccccc3oc2=O)c2c(O)c3ccccc3oc2=O)c(OC)c1`: the EC50 is greater than 200 µM and the IC50 worked out at 85.1 µM.

On to `O=C(CCN1CCCC1)CC(c1ccccc1)c1c(O)c2ccccc2oc1=O` (stereo not given), for which the EC50 is greater than 91.2 µM and the IC50 was greater than 91.2 µM.

Turning to `CCOC(=O)[C@H](O)[C@@H](O)C(=O)NCc1ccc(C(=O)c2ccccc2)cc1`, the EC50 is greater than 200 µM and the IC50 is greater than 200 µM.

As to `COc1cc(CN(C)N2C(=O)c3cccc4cc([N+](=O)[O-])cc(c34)C2=O)cc(OC)c1OC`, the result was inactive.

For the molecule `CS(=O)(=O)c1ccc(N=C/C=C/Nc2ccc(S(C)(=O)=O)cc2)cc1`, the EC50 is greater than 200 µM and the half-maximal inhibitory concentration (IC50) was greater than 200 µM.

Regarding `CCCCC(CC)CN=Cc1c(O)c(O)c(C(C)C)c2cc(C)c(-c3c(C)cc4c(C(C)C)c(O)c(O)c(C=NCC(CC)CCCC)c4c3O)c(O)c12` (stereo not given), the EC50 is greater than 200 µM and the IC50 was 145 µM.

Take `C=C(C)[C@@H]1CC[C@]2(C(=O)OC)CC[C@]3(C)[C@H](CC[C@@H]4[C@@]5(C)CC[C@H](O)C(C)(C)[C@@H]5CC[C@]43C)[C@@H]12`: the outcome was inactive.

For the molecule `CN1CCN(CCCCN2c3ccccc3Sc3ccc(N=[N+]=[N-])cc32)CC1`, the EC50 is greater than 200 µM and the IC50 turned out to be 5.25 µM.

On to `CC1CC2C(=O)N(c3ccccc3)C(=O)C2c2[nH]c3ccccc3c21` (stereo not given), for which the outcome was inactive.

In the case of `CC1(C)C(=O)C(C)(C)C1O`, the EC50 was greater than 1780 µM and the IC50 is greater than 1780 µM.

In the case of `CCC[CH2][Sn]([CH2]CCC)([O]C(=O)Cc1ccc(F)cc1)[O]C(=O)Cc1ccc(F)cc1`, the EC50 was greater than 25.1 µM and the IC50 came out at 4.79 µM.

In the case of `CC(C)[Si](OC1=C(c2ccccc2)C(NC(=O)/C=C/c2ccc([N+](=O)[O-])cc2)CCC1)(C(C)C)C(C)C` (stereo not given), the EC50 was greater than 200 µM and the IC50 is greater than 200 µM.

For the molecule `Nc1nc(N)n2c(N)nnc2n1`, the EC50 was greater than 200 µM and the IC50 was greater than 200 µM.
